Literature values as cited in US20240374497A1, “COMPOSITIONS COMPRISING OR2AT4 AGONISTS” (Coty Inc., priority 2021, published 2024).

Assays:
[1] = molecular target: T1, olfactory receptor OR2AT4 (Homo sapiens, UniProt A6NND4); conditions: receptor expressed in the epithelium of human hair follicles
T1 sequence (A6NND4 1-320): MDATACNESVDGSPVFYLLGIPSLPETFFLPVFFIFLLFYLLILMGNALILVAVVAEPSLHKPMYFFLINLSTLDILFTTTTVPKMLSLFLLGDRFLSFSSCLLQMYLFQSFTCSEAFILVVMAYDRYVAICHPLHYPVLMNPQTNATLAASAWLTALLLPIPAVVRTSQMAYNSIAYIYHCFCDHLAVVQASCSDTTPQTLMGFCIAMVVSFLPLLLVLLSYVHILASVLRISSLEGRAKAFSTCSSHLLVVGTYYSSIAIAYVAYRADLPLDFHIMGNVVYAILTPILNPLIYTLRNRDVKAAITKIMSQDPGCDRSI

[2] = tested on: human epidermal keratinocyte; conditions: in vitro; selective activation of OR2AT4
human epidermis = conditions: ex vivo; selective activation of OR2AT4

effect on the olfactory receptor OR2AT4 [1]	SMILES	hair growth ex vivo (human hair follicles)	apoptosis (human hair follicles; ex vivo)	production of growth factor IGF-1 (human hair follicles; ex vivo)	human epidermal keratinocyte migration and proliferation [2]	wound re-epithelialization (human epidermis)
stimulatory effect	CC1=CCC(CCC(C)C(C)O)C1(C)C (stereo not drawn) [sandal pentanol, 3-methyl-5-(2,2,3-trimethylcyclopent-3-en-1-yl)pentan-2-ol]	prolongs hair growth	decreasing apoptosis	increasing the production of growth factor IGF-1	–	–
–	CC1=CCC(CCC(C)C(C)O)C1(C)C (stereo not drawn) [Sandalore®]	–	–	–	promotes human epidermal keratinocyte migration and proliferation	promotes
